As a reminder, the melting point is the temperature, or range, at which the solid turns liquid. On to `O=C(O)c1ccc(-n2nc(-c3cccc(O)c3O)nc2-c2ccccc2O)cc1` [Example 1, 4-[3-(2,3-Dihydroxy-phenyl)-5-(2-hydroxy-phenyl)-[1,2,4]triazol-1-yl]benzoic Acid], for which the melting point is 223 to 226 °C.

The record behind these values is patent publication US20050080120A1, “4-[3,5-bis-(2-hydroxy-phenyl)-[1,2,4]triazol-1-yl]-benzoic acid derivatives for treating an excess of metal in the body” (priority 2001, published 2005).
